Experimental data published in ChEMBL document CHEMBL5360653, “Marine Alkaloid Lepadins E and H Induce Ferroptosis for Cancer Chemotherapy” (J Med Chem, 2023).
Calls of active or inactive are those of the source. No cut-off for these calls is given here.

How the values were obtained:
HeLa [1] = assay: Induction of apoptosis in human HeLa cells assessed as early apoptotic cells incubated at 4 uM for 24 hrs measured by annexin V-PI staining based FITC analysis (reference value: 3.94%); assay type: functional
HeLa [2] = assay: Induction of apoptosis in human HeLa cells assessed as necrotic cells incubated at 10 uM for 24 hrs measured by annexin V-PI staining based FITC analysis (reference value: 0.58%); assay type: functional
HeLa [3] = assay: Induction of apoptosis in human HeLa cells assessed as early apoptotic cells incubated at 10 uM for 24 hrs measured by annexin V-PI staining based FITC analysis (reference value: 3.28%); assay type: functional
HeLa [4] = assay: Induction of apoptosis in human HeLa cells assessed as late apoptotic cells preincubated with PFTalpha followed by compound addition at 10 uM for 24 hrs measured by annexin V-PI staining based FITC analysis (reference value: 3.45%); assay type: functional
HeLa [5] = assay: Induction of ROS generation in human HeLa cells assessed as increase in ROS level at 10 uM incubated for 1 hrs (reference value: 37.8%); assay type: functional
HeLa [6] = assay: Induction of ROS generation in human HeLa cells assessed as increase in ROS level at 20 uM incubated for 0.5 hrs (reference value: 37.8%); assay type: functional
HeLa [7] = assay: Induction of apoptosis in human HeLa cells assessed as early apoptotic cells incubated at 4 uM for 24 hrs measured by annexin V-PI staining based FITC analysis (reference value: 3.59%); assay type: functional
HeLa [8] = assay: Induction of apoptosis in human HeLa cells assessed as necrotic cells incubated at 4 uM for 24 hrs measured by annexin V-PI staining based FITC analysis (reference value: 0.70%); assay type: functional
HeLa [9] = assay: Induction of apoptosis in human HeLa cells assessed as early apoptotic cells incubated at 6 uM for 24 hrs measured by annexin V-PI staining based FITC analysis (reference value: 3.59%); assay type: functional
HeLa [10] = assay: Induction of apoptosis in human HeLa cells assessed as late apoptotic cells incubated at 6 uM for 24 hrs measured by annexin V-PI staining based FITC analysis (reference value: 1.81%); assay type: functional
HeLa [11] = assay: Induction of apoptosis in human HeLa cells assessed as necrotic cells incubated at 6 uM for 24 hrs measured by annexin V-PI staining based FITC analysis (reference value: 0.70%); assay type: functional
HeLa [12] = assay: Induction of apoptosis in human HeLa cells assessed as necrotic cells incubated at 8 uM for 24 hrs measured by annexin V-PI staining based FITC analysis (reference value: 0.70%); assay type: functional
HeLa [13] = assay: Induction of apoptosis in human HeLa cells assessed as late apoptotic cells incubated at 10 uM for 24 hrs measured by annexin V-PI staining based FITC analysis (reference value: 2.3%); assay type: functional
HeLa [14] = assay: Induction of apoptosis in human HeLa cells assessed as late apoptotic cells preincubated with PFTalpha followed by compound addition at 10 uM for 24 hrs measured by annexin V-PI staining based FITC analysis (reference value: 2.3%); assay type: functional
HeLa [15] = assay: Induction of ROS generation in human HeLa cells assessed as increase in ROS level at 6 to 10 uM; assay type: functional, cell-based; conditions: dose 6-10 µM
HeLa [16] = assay: Induction of ROS generation in human HeLa cells assessed as increase in ROS level at 20 uM incubated for 0.5 hrs (reference value: 39.6%); assay type: functional
HeLa [17] = assay: Induction of ROS generation in human HeLa cells assessed as increase in ROS level at 20 uM incubated for 1 hrs (reference value: 39.6%); assay type: functional
HeLa [18] = assay: Induction of ferroptosis in human HeLa cells assessed as decrease in cellular GSH level measured at 4 uM for 24 hrs by transmission electron microscopic analysis; assay type: functional, cell-based
HeLa [19] = assay: Induction of ferroptosis in human HeLa cells assessed as reduction of mitochondrion volume measured at 6 uM for 24 hrs by transmission electron microscopic analysis; assay type: functional, cell-based
HeLa [20] = assay: Induction of ferroptosis in human HeLa cells assessed as increase in density of mitochondrial membrane measured at 6 uM for 24 hrs by transmission electron microscopic analysis; assay type: functional, cell-based
HeLa [21] = assay: Induction of ferroptosis in human HeLa cells assessed as downregulation of SLC7A11 level measured at 4 to 10 uM for 24 hrs by Western blotting analysis; assay type: functional, cell-based; conditions: dose 4-10 µM
HeLa [22] = assay: Induction of ferroptosis in human HeLa cells assessed as increase of ACSL4 level measured at 4 to 10 uM for 24 hrs by Western blotting analysis; assay type: functional, cell-based; conditions: dose 4-10 µM
B16-F10 [23] = assay: Induction of ferroptosis in mouse B16-F10 cells assessed as downregulation of SLC7A11 level measured at 4 to 10 uM by Western blotting analysis; assay type: functional, cell-based; conditions: dose 4-10 µM
B16-F10 [24] = assay: Induction of ferroptosis in mouse B16-F10 cells assessed as increase in ACSL4 level measured at 4 to 10 uM by Western blotting analysis; assay type: functional, cell-based; conditions: dose 4-10 µM
B16-F10 [25] = assay: Antitumor activity against mouse B16-F10 cells allografted in immunocompetent C57BL/6J mouse assessed as reduction of tumor growth administered at 30 mg/kg, ip daily for 14 days (reference value: 1500 mm^3); assay type: functional; conditions: time 14 day
[26] = Toxicity in immunocompetent C57BL/6J mouse allografted with B16-F10 cells assessed as change in body weight administered at 30 mg/kg, ip daily for 14 days measured every 3 days; assay type: organism-based; conditions: in vivo, 336 h, time 14 day
[27] = Toxicity in immunocompetent C57BL/6J mouse allografted with B16-F10 cells assessed as change of organ index in heart administered at 30 mg/kg, ip daily for 14 days by hematoxylin and eosin staining analysis; assay type: organism-based; conditions: in vivo, 336 h, time 14 day
[28] = Toxicity in immunocompetent C57BL/6J mouse allografted with B16-F10 cells assessed as change of organ index in thymus administered at 30 mg/kg, ip daily for 14 days by hematoxylin and eosin staining analysis; assay type: organism-based; conditions: in vivo, 336 h, time 14 day
[29] = Toxicity in immunocompetent C57BL/6J mouse allografted with B16-F10 cells assessed as tissue damage in spleen administered at 30 mg/kg, ip daily for 14 days by hematoxylin and eosin staining analysis; assay type: organism-based; conditions: in vivo, 336 h, time 14 day
[30] = Toxicity in immunocompetent C57BL/6J mouse allografted with B16-F10 cells assessed as tissue damage in kidney administered at 30 mg/kg, ip daily for 14 days by hematoxylin and eosin staining analysis; assay type: organism-based; conditions: in vivo, 336 h, time 14 day
[31] = Toxicity in immunocompetent C57BL/6J mouse allografted with B16-F10 cells assessed as tissue damage in lungs administered at 30 mg/kg, ip daily for 14 days by hematoxylin and eosin staining analysis; assay type: organism-based; conditions: in vivo, 336 h, time 14 day

CCCCC/C=C/C(=O)O[C@@H]1C[C@H]2[C@@H](CCCC[C@H](O)CCC)CCC[C@H]2N[C@H]1C showed an Activity (HeLa [1]) of 5.32%, an Activity (HeLa [2]) of 4.68% and an Activity (HeLa [3]) of 35.6%. For the same molecule, the Activity (HeLa [4]) was 26.9%, the Activity (HeLa [5]) was 62.3% and the Activity (HeLa [6]) was 80.6%.

For CCC/C=C/C=C/C(=O)O[C@@H]1C[C@H]2[C@@H](CCCC[C@H](O)CCC)CCC[C@H]2N[C@H]1C, the Activity (HeLa [7]) was 4.56%, the Activity (HeLa [8]) was 1.14% and the Activity (HeLa [9]) was 6.71%. For the same molecule, the Activity (HeLa [10]) was 3.94%, the Activity (HeLa [11]) was 0.94% and the Activity (HeLa [12]) was 0.5%. For the same molecule, the Activity (HeLa [13]) was 45.3%, the Activity (HeLa [14]) was 19.5% and the Activity (HeLa [15]) was “Active”. For the same molecule, the Activity (HeLa [16]) was 84.4%, the Activity (HeLa [17]) was 90.1% and the Activity (HeLa [18]) was “Active”. The Activity (HeLa [19]) was “Active”, the Activity (HeLa [20]) was “Active” and the Activity (HeLa [21]) was “Active”. For the same molecule, the Activity (HeLa [22]) was “Active”, the Activity (B16-F10 [23]) was “Active” and the Activity (B16-F10 [24]) was “Active”. The Activity (B16-F10 [25]) was less than 500 mm3, the Activity [26] was “Non-Toxic” and the Activity [27] was “Non-Toxic”. For the same molecule, the Activity [28] was “Non-Toxic”, the Activity [29] was “Non-Toxic” and the Activity [30] was “Non-Toxic”. The Activity [31] was “Non-Toxic”.
